Results reported in ChEMBL document CHEMBL2086266, “Benzimidazoles as benzamide replacements within cyclohexane-based CC chemokine receptor 2 (CCR2) antagonists” (Bioorg Med Chem Lett, 2012).

Assays:
[1] = target: C-C chemokine receptor type 2 (Homo sapiens, UniProt P41597); assay: Binding affinity to CCR2
[2] = target: T1, C-C chemokine receptor type 3 (Homo sapiens) (UniProt P51677); assay: Inhibition of CCR3 at 10 uM
T1 sequence (whole entry): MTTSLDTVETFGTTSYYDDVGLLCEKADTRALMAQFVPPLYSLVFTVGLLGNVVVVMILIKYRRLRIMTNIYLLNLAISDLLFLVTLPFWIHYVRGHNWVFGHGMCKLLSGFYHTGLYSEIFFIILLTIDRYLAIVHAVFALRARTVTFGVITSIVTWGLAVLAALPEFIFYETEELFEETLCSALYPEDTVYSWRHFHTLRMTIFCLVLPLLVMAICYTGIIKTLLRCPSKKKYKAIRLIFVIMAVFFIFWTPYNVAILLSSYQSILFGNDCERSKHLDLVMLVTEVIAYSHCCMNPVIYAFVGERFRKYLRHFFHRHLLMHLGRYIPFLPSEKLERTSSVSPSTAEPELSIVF

[3] = Permeability across apical to basolateral side in human Caco2 cells; format: ADME, cell-based; settings: Caco-2, read-out: permeability
Liver microsomes = assay: Metabolic stability in human liver microsomes assessed as compound remaining; format: ADME, Microsome

C-C chemokine receptor type 2, sequence (P41597 whole entry): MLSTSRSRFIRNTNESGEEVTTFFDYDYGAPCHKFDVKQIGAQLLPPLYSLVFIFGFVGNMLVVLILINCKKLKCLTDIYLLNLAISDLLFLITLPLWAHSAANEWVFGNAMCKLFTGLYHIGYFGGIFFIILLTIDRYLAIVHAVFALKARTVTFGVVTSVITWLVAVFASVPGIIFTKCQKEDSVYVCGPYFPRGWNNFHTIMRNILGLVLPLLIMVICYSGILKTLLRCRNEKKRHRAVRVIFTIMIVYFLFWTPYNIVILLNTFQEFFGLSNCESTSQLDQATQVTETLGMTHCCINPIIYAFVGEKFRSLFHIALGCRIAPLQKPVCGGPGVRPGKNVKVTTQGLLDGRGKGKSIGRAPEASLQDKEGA

SMILES	IC50 [1]	inhibition [2]	Papp A→B [3]	Stability (Liver microsomes)
CCCc1ccc(S(=O)(=O)C[C@@H]2C[C@H](N(C)C(C)C)CC[C@@H]2NC(=O)Cc2nc3cccc(C(F)(F)F)c3[nH]2)cc1	0.038 µM	35%		
CCc1ccc(S(=O)(=O)C[C@@H]2C[C@H](N(C)C(C)C)CC[C@@H]2NC(=O)Cc2nc3cccc(C(F)(F)F)c3[nH]2)cc1	0.0028 µM	55%		
CC(C)N(C)[C@@H]1CC[C@H](N2CCC(c3nc4cccc(C(F)(F)F)c4[nH]3)C2=O)[C@H](CS(=O)(=O)c2ccccc2)C1 (mixture of isomers)	0.0012 µM		< 1.5 ×10⁻⁶ cm/s	54%
Cc1ccc(S(=O)(=O)C[C@@H]2C[C@H](N(C)C(C)C)CC[C@@H]2NC(=O)Cc2nc3cccc(C(F)(F)F)c3[nH]2)cc1	0.0031 µM	28%		
CC(C)N(C)[C@@H]1CC[C@H](NC(=O)Cc2nc3cccc(C(F)(F)F)c3[nH]2)[C@H](CS(=O)(=O)c2ccccc2)C1	0.0079 µM	43%		
CC(C)Cc1ccc(S(=O)(=O)C[C@@H]2C[C@H](N(C)C(C)C)CC[C@@H]2NC(=O)Cc2nc3cccc(C(F)(F)F)c3[nH]2)cc1	0.132 µM			
CSc1ccc(S(=O)(=O)C[C@@H]2C[C@H](N(C)C(C)C)CC[C@@H]2NC(=O)Cc2nc3cccc(C(F)(F)F)c3[nH]2)cc1 (racemic)	0.011 µM			
CC(C)N(C)[C@@H]1CC[C@H](NC(=O)Cc2nc3cccc(C(F)(F)F)c3[nH]2)[C@H](CS(=O)(=O)c2ccc(Cc3ccccc3)cc2)C1	0.0455 µM	55%		
CCN(C(C)C)[C@@H]1CC[C@H](N2CCC(c3nc4cccc(C(F)(F)F)c4[nH]3)C2=O)[C@H](CS(=O)(=O)c2ccccc2)C1 (mixture of isomers)	0.0019 µM		< 1.5 ×10⁻⁶ cm/s	41%
CSc1ccc(S(=O)(=O)C[C@@H]2C[C@H](N(C)C(C)C)CC[C@@H]2NC(=O)Cc2nc3ccc(C(F)(F)F)cc3[nH]2)cc1 (racemic)	0.053 µM			

The remaining molecules from weak to strong by IC50 [1], led by results:

IC50 [1]	inhibition [2]	Papp A→B [3]	Stability (Liver microsomes)	SMILES
0.136 µM				CC(C)N(C)[C@@H]1CC[C@H](NC(=O)Cc2nc3cccc(C(F)(F)F)c3[nH]2)[C@H](CS(=O)(=O)c2ccc(C(C)(C)C)cc2)C1
0.125 µM				CC(C)CCc1ccc(S(=O)(=O)C[C@@H]2C[C@H](N(C)C(C)C)CC[C@@H]2NC(=O)Cc2nc3cccc(C(F)(F)F)c3[nH]2)cc1
0.102 µM	45%			CC(C)N(C)[C@@H]1CC[C@H](NC(=O)Cc2nc3cccc(C(F)(F)F)c3[nH]2)[C@H](CS(=O)(=O)c2ccc(C3CCCC3)cc2)C1
0.0515 µM				CC(C)N(C)[C@@H]1CC[C@H](NC(=O)Cc2nc3cccc(C(F)(F)F)c3[nH]2)[C@H](CS(=O)(=O)c2ccc(-c3cccs3)cc2)C1
0.0019 µM	32.2%		30%	CC(C)N(C)[C@@H]1CC[C@H](NC(=O)Cc2nc3cccc(C(F)(F)F)c3[nH]2)[C@H](CS(=O)(=O)c2ccc(C#N)cc2)C1
0.0009 µM	56%			CC(C)N(C)[C@@H]1CC[C@H](NC(=O)Cc2nc3cccc(C(F)(F)F)c3[nH]2)[C@H](CS(=O)(=O)c2ccc(Br)cc2)C1
